The values below come from patent US11219611B2 (Ocera Therapeutics, Inc., priority 2015, dated 2022).

Data set [1] is described as follows: Phase 1 single-dose crossover study in healthy subjects: plasma PAA and PAGN pharmacokinetics. The procedure: Plasma samples were analyzed for concentrations of phenylacetic acid (PAA), phenylacetylglutamine (PAGN) and ornithine (ORN) using a validated LC-MS/MS method. All urine samples were analyzed for concentrations of PAGN using a validated LC-MS/MS method.
Pharmacokinetics: Plasma concentration vs. time profiles of phenylacetate, ornithine, and phenylacetylglutamine following a single oral dose of each of the study drug were analyzed by noncompartmental PK methods. Pharmacokinetic parameters that were determined include Cmax, tmax, AUC0-t, AUC0-∞, C12 and t1/2.

Data set [2] in a line: Phase 1 study in healthy subjects: urinary excretion of PAGN over 24 hours. The format is in vivo, human. Conditions: single oral dose; for Percent PAA Dose Excreted over 24 hours: urine as PAGN. The procedure: Plasma samples were separated by centrifugation within 1 hour of blood collection and stored at approximately −80° C. until analyzed. The total urine volume for each collection interval were measured and recorded and aliquots of urine were stored at approximately −80° C. until analyzed.

Data set [3] has as its system hepatic encephalopathy. Particulars: cited from earlier work.
The test system of data set [4] is ammonia. Conditions: clinical study reported by Jalan et al. 2007; cited from earlier work.

Turning to `O=C(CCCc1ccccc1)OCC(COC(=O)CCCc1ccccc1)OC(=O)CCCc1ccccc1` [RAVICTI®, glycerol phenylbutyrate], the “time after dosing at which mean plasma PAGN Cmax occurred” value in data set [1] (single oral dose (10 g extended-release formulation or 6 mL RAVICTI)) is reported as “approximately 5 hours”. In data set [1] (single oral dose (10 g extended-release formulation or 6 mL RAVICTI, each about 5 g PAA equivalent)), the “mean maximum concentration (Cmax) of plasma PAA” value was “approximately 10 μg/mL”. In data set [2] (Table 2), the “PAA converted to PAGN excretion over 24 hours (conversion efficiency)” value was “about 40%”. The “Percent PAA Dose Excreted over 24 hours” value in data set [2] (mean) is recorded as 42.7%; in data set [2] (median), 42.1%. The “Total PAGN Amount Excreted over 24 hours” value in data set [2] (urine, mean) stood at 4.11 G; in data set [2] (urine, median), 4.06 G. In addition, the “PAA Equivalents Excreted over 24 hours” value in data set [2] (urine, median) is on record as 2.09 G. In addition, the “incidence of hepatic encephalopathy events” value in data set [3] (clinical studies, 6 mL twice daily) was “lower the incidence of hepatic encephalopathy events”. Moreover, the “efficacy for the treatment of hepatic encephalopathy” value in data set [3] (clinical trials (Rockey et al., Hepatology 2014)) was “preliminary efficacy”.
As for L-ornithine phenylacetate, the ammonia lowering entry in data set [4] was “useful in ammonia lowering”.
